One may read the IC50 as the concentration needed to halve the response being measured. A higher IC50 goes with weaker potency.

The results in this text go back to US8912176B2 (Evotec AG, priority 2009, dated 2014).

In this experiment the target is human H3 receptor (Homo sapiens, UniProt Q9Y5N1). Put plainly: cAMP quantification assay for human H3 receptor (DiscoveRx cAMP XS+).
Sequence of human H3 receptor (Q9Y5N1 whole entry): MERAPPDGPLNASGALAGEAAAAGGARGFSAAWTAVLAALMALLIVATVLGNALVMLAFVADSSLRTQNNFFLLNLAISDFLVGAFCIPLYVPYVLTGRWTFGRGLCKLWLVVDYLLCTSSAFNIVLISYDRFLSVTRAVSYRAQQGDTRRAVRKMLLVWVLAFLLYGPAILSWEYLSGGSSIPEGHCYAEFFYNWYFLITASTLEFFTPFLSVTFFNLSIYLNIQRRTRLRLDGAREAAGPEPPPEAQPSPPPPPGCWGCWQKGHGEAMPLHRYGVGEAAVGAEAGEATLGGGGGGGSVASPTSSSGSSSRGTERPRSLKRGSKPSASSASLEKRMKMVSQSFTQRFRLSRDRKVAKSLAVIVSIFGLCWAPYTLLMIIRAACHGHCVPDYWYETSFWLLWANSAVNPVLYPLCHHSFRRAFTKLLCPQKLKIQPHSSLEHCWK
In the case of `CN(C(=O)N1CC(C(=O)N2CCCN(C3CCC3)CC2)C1)c1ccc(C#N)cc1` [Example 63], the IC50 is < 50 nM.

Consider `O=C(NCc1ccc(F)cc1)N1CC(C(=O)N2CCCN(C3CCC3)CC2)C1` [Example 58, 3-[(4-cyclobutyl-1,4-diazepan-1-yl)carbonyl]-N-(4-fluorobenzyl)azetidine-1-carboxamide], for which the IC50 was < 50 nM.

Turning to `Cc1cnc(C(=O)N2CC(C(=O)N3CCCN(C4CCC4)CC3)C2)cn1` [Example 9, 1-cyclobutyl-4-({1-[(5-methylpyrazin-2-yl)carbonyl]azetidin-3-yl}carbonyl)-1,4-diazepane], the IC50 was < 50 nM.

For `CC1(C)COC(c2ccc(C(=O)N3CC(C(=O)N4CCCN(C5CCC5)CC4)C3)cc2)=N1` [Example 42, 1-cyclobutyl-4-[(1-{[4-(4,4-dimethyl-4,5-dihydro-1,3-oxazol-2-yl)phenyl]carbonyl}azetidin-3-yl)carbonyl]-1,4-diazepane], the concentration for half-maximal inhibition (IC50) is < 50 nM.

Take `O=C(Cc1ccc(Cl)cc1)N1CC(C(=O)N2CCCN(C3CCC3)CC2)C1` [Example 54, 1-({1-[(4-chlorophenyl)acetyl]azetidin-3-yl}carbonyl)-4-cyclobutyl-1,4-diazepane]: the concentration for half-maximal inhibition (IC50) was < 50 nM.

In the case of `CS(=O)(=O)c1ccc(C(=O)N2CC(C(=O)N3CCCN(C4CCC4)CC3)C2)cc1` [Example 55, 1-cyclobutyl-4-[(1-{[4-(methylsulfonyl)phenyl]carbonyl}azetidin-3-yl)carbonyl]-1,4-diazepane], the IC50 was < 50 nM.

For the compound `O=C(CC1CC1)N1CC(C(=O)N2CCCN(C3CCC3)CC2)C1` [Example 32, 1-cyclobutyl-4-{[1-(cyclopropylacetyl)azetidin-3-yl]carbonyl}-1,4-diazepane], the IC50 was < 50 nM.

With `Cc1ccc(C(=O)N2CC(C(=O)N3CCCN(CC4CC4)CC3)C2)cn1` [Example 83, 1-(cyclopropylmethyl)-4-({1-[(6-methylpyridin-3-yl)carbonyl]azetidin-3-yl}carbonyl)-1,4-diazepane], the concentration for half-maximal inhibition (IC50) lay within 100 to 5000 nM.

Take `O=C(c1ccc(-n2ccnc2)cc1)N1CC(C(=O)N2CCCN(C3CCC3)CC2)C1` [Example 72, 1-cyclobutyl-4-[(1-{[4-(1H-imidazol-1-yl)phenyl]carbonyl}azetidin-3-yl)carbonyl]-1,4-diazepane]: the IC50 was < 50 nM.

For the compound `O=C(CC1CCCCC1)N1CC(C(=O)N2CCCN(C3CCC3)CC2)C1` [Example 33, 1-cyclobutyl-4-{[1-(cyclohexylacetyl)azetidin-3-yl]carbonyl}-1,4-diazepane], the concentration for half-maximal inhibition (IC50) was < 50 nM.

Take `Cc1ncc(C(=O)N2CC(C(=O)N3CCCN(C4CCC4)CC3)C2)cn1` [Example 8, 1-cyclobutyl-4-({1-[(2-methylpyrimidin-5-yl)carbonyl]azetidin-3-yl}carbonyl)-1,4-diazepane]: the concentration for half-maximal inhibition (IC50) was < 50 nM.

Turning to `O=C(CN1CCC(F)(F)C1)N1CC(C(=O)N2CCCN(C3CCC3)CC2)C1` [Example 19, 1-cyclobutyl-4-({1-[(3,3-difluoropyrrolidin-1-yl)acetyl]azetidin-3-yl}carbonyl)-1,4-diazepane], the IC50 is < 50 nM.

As for `O=C(C1CN(S(=O)(=O)c2ccccc2)C1)N1CCCN(C2CCC2)CC1` [Example 26, 1-cyclobutyl-4-{[1-(phenylsulfonyl)azetidin-3-yl]carbonyl}-1,4-diazepane], the IC50 is < 50 nM.

For the compound `O=C(C1CN(C(=O)N2CCc3ccccc3C2)C1)N1CCCN(C2CCC2)CC1` [Example 65, 2-({3-[(4-cyclobutyl-1,4-diazepan-1-yl)carbonyl]azetidin-1-yl}carbonyl)-1,2,3,4-tetrahydroisoquinoline], the IC50 was < 50 nM.

With `O=C(c1ccc(Cn2cncn2)cc1)N1CC(C(=O)N2CCCN(C3CCC3)CC2)C1` [Example 74, 1-cyclobutyl-4-[(1-{[4-(1H-1,2,4-triazol-1-ylmethyl)phenyl]carbonyl}azetidin-3-yl)carbonyl]-1,4-diazepane], the half-maximal inhibitory concentration (IC50) is < 50 nM.

Take `N#Cc1ccc(CC(=O)N2CC(C(=O)N3CCCN(C4CCC4)CC3)C2)cc1` [Example 34, 4-(2-{3-[(4-cyclobutyl-1,4-diazepan-1-yl)carbonyl]azetidin-1-yl}-2-oxoethyl)benzonitrile]: the IC50 was < 50 nM.

`O=C(C1CN(C(=O)C2CCC(F)(F)CC2)C1)N1CCCN(C2CCC2)CC1` [Example 29, 1-cyclobutyl-4-({1-[(4,4-difluorocyclohexyl)carbonyl]azetidin-3-yl}carbonyl)-1,4-diazepane]: the half-inhibitory concentration (IC50) was < 50 nM.

For the compound `Cc1noc(-c2ccc(C(=O)N3CC(C(=O)N4CCCN(C5CCC5)CC4)C3)cc2)n1` [Example 41, 1-cyclobutyl-4-[(1-{[4-(3-methyl-1,2,4-oxadiazol-5-yl)phenyl]carbonyl}azetidin-3-yl)carbonyl]-1,4-diazepane], the IC50 is < 50 nM.

For the compound `O=C(Cn1cccn1)N1CC(C(=O)N2CCCN(C3CCC3)CC2)C1` [Example 15, 1-cyclobutyl-4-{[1-(1H-pyrazol-1-ylacetyl)azetidin-3-yl]carbonyl}-1,4-diazepane], the IC50 is < 50 nM.

Take `O=C(NCC1CCOCC1)N1CC(C(=O)N2CCCN(C3CCC3)CC2)C1` [Example 57, 3-[(4-cyclobutyl-1,4-diazepan-1-yl)carbonyl]-N-(tetrahydro-2H-pyran-4-ylmethyl)azetidine-1-carboxamide]: the IC50 was < 50 nM.

As for `N#Cc1ccc(OCC(=O)N2CC(C(=O)N3CCCN(C4CCC4)CC3)C2)cc1` [Example 22, 4-(2-{3-[(4-cyclobutyl-1,4-diazepan-1-yl)carbonyl]azetidin-1-yl}-2-oxoethoxy)benzonitrile], the IC50 was < 50 nM.

With `CC(=O)N1CC(C(=O)N2CCCN(C3CCC3)CC2)C1` [Example 70, 1-[(1-acetylazetidin-3-yl)carbonyl]-4-cyclobutyl-1,4-diazepane], the IC50 is < 50 nM.

`Cc1ccc(C(=O)N2CC(C(=O)N3CCCN(C4CCCCC4)CC3)C2)cn1` [Example 82, 1-cyclohexyl-4-({1-[(6-methylpyridin-3-yl)carbonyl]azetidin-3-yl}carbonyl)-1,4-diazepane]: the IC50 was < 50 nM.

In the case of `O=C(c1ccc(-c2cccnc2)cc1)N1CC(C(=O)N2CCCN(C3CCC3)CC2)C1` [Example 44, 1-cyclobutyl-4-({1-[(4-pyridin-3-ylphenyl)carbonyl]azetidin-3-yl}carbonyl)-1,4-diazepane], the 50% inhibitory concentration (IC50) is < 50 nM.

As to `O=C(c1ccc(-n2cccn2)nc1)N1CC(C(=O)N2CCCN(C3CCC3)CC2)C1` [Example 14, 1-cyclobutyl-4-[(1-{[6-(1H-pyrazol-1-yl)pyridin-3-yl]carbonyl}azetidin-3-yl)carbonyl]-1,4-diazepane], the 50% inhibitory concentration (IC50) is < 50 nM.

For `CC(C)(O)c1ccc(C(=O)N2CC(C(=O)N3CCCN(C4CCC4)CC3)C2)cn1` [Example 76, 2-[5-({3-[(4-cyclobutyl-1,4-diazepan-1-yl)carbonyl]azetidin-1-yl}carbonyl)pyridin-2-yl]propan-2-ol], the IC50 is < 50 nM.

Take `Cc1cc(C)n(-c2ccc(C(=O)N3CC(C(=O)N4CCCN(C5CCC5)CC4)C3)cc2)n1` [Example 30, 1-cyclobutyl-4-[(1-{[4-(3,5-dimethyl-1H-pyrazol-1-yl)phenyl]carbonyl}azetidin-3-yl)carbonyl]-1,4-diazepane]: the half-maximal inhibitory concentration (IC50) was < 50 nM.

Consider `Cc1ccc(CC(=O)N2CC(C(=O)N3CCCN(C4CCC4)CC3)C2)cn1` [Example 43, 1-cyclobutyl-4-({1-[(6-methylpyridin-3-yl)acetyl]azetidin-3-yl}carbonyl)-1,4-diazepane], for which the concentration for half-maximal inhibition (IC50) is < 50 nM.

For the compound `CN(CC1CCOCC1)C(=O)N1CC(C(=O)N2CCCN(C3CCC3)CC2)C1` [Example 61, 3-[(4-cyclobutyl-1,4-diazepan-1-yl)carbonyl]-N-methyl-N-(tetrahydro-2H-pyran-4-ylmethyl)azetidine-1-carboxamide], the concentration for half-maximal inhibition (IC50) is < 50 nM.

Consider `N#Cc1ccc(C(=O)N2CC(C(=O)N3CCCN(C4CCC4)CC3)C2)cc1` [Example 6, 4-({3-[(4-cyclobutyl-1,4-diazepan-1-yl)carbonyl]azetidin-1-yl}carbonyl)benzonitrile], for which the half-maximal inhibitory concentration (IC50) was < 50 nM.

Turning to `COC1CCC(C(=O)N2CC(C(=O)N3CCCN(C4CCC4)CC3)C2)CC1` (mixture of isomers) [Example 28, 1-cyclobutyl-4-({1-[(4-methoxycyclohexyl)carbonyl]azetidin-3-yl}carbonyl)-1,4-diazepane], the IC50 is < 50 nM.

Regarding `Cc1ccc(C(=O)N2CC(C(=O)N3CCN(C4CCC4)CC3)C2)cn1` [Example 87, 1-cyclobutyl-4-({1-[(6-methylpyridin-3-yl)carbonyl]azetidin-3-yl}carbonyl)piperazine], the concentration for half-maximal inhibition (IC50) lay within 100 to 5000 nM.

On to `CN(Cc1ccc(C#N)cc1)C(=O)N1CC(C(=O)N2CCCN(C3CCC3)CC2)C1` [Example 64, N-(4-cyanobenzyl)-3-[(4-cyclobutyl-1,4-diazepan-1-yl)carbonyl]-N-methylazetidine-1-carboxamide], for which the IC50 is < 50 nM.

On to `CCN1CCCN(C(=O)C2CN(C(=O)c3ccc(C)nc3)C2)CC1` [Example 80, 1-ethyl-4-({1-[(6-methylpyridin-3-yl)carbonyl]azetidin-3-yl}carbonyl)-1,4-diazepane], for which the concentration for half-maximal inhibition (IC50) is < 50 nM.

On to `O=C(CN1CCC(F)(F)CC1)N1CC(C(=O)N2CCCN(C3CCC3)CC2)C1` [Example 20, 1-cyclobutyl-4-({1-[(4,4-difluoropiperidin-1-yl)acetyl]azetidin-3-yl}carbonyl)-1,4-diazepane], for which the IC50 was < 50 nM.

On to `O=C(c1ccc(Oc2ccccc2)cc1)N1CC(C(=O)N2CCCN(C3CCC3)CC2)C1` [Example 39, 1-cyclobutyl-4-({1-[(4-phenoxyphenyl)carbonyl]azetidin-3-yl}carbonyl)-1,4-diazepane], for which the IC50 is < 50 nM.

As for `Cc1nc(-c2cccc(C(=O)N3CC(C(=O)N4CCCN(C5CCC5)CC4)C3)c2)cs1` [Example 46, 1-cyclobutyl-4-[(1-{[3-(2-methyl-1,3-thiazol-4-yl)phenyl]carbonyl}azetidin-3-yl)carbonyl]-1,4-diazepane], the IC50 is < 50 nM.

`O=C(c1ccc(-n2cncn2)cc1)N1CC(C(=O)N2CCCN(C3CCC3)CC2)C1` [Example 73, 1-cyclobutyl-4-[(1-{[4-(1H-1,2,4-triazol-1-yl)phenyl]carbonyl}azetidin-3-yl)carbonyl]-1,4-diazepane]: the IC50 was < 50 nM.
